Data reported in the SangsterLogP compilation.

Experiment: method code SF-AS, from DOI: 10.1016/0048-3575(79)90081-6
Details: not given

Row | Structure (SMILES) | logP
1 | O=C1CCC(=O)N1c1cccc(Br)c1 | 1.09
2 | CCc1ccccc1N1C(=O)CCC1=O | 0.64
3 | COc1ccccc1N1C(=O)CCC1=O | -0.02
4 | O=C1CCC(=O)N1c1ccc(Cl)cc1 | 0.96
5 | O=C1CCC(=O)N1c1ccccc1 | 0.06
6 | N#Cc1cccc(N2C(=O)CCC2=O)c1 | 0.02
7 | O=C1CCC(=O)N1c1cccc([N+](=O)[O-])c1 | 0.38
8 | Cc1ccc(N2C(=O)CCC2=O)cc1 | 0.58
9 | O=C1CCC(=O)N1c1ccccc1I | 0.8
10 | O=C1CCC(=O)N1c1ccc(F)cc1 | 0.29
11 | O=C1CCC(=O)N1c1ccccc1F | 0.22
12 | O=C1CCC(=O)N1c1cccc(Cl)c1 | 0.98
13 | O=C1CCC(=O)N1c1ccc([N+](=O)[O-])cc1 | 0.46
14 | O=C1CCC(=O)N1c1ccccc1[N+](=O)[O-] | 0.36
15 | Cc1ccccc1N1C(=O)CCC1=O | 0.29
16 | CCc1ccc(N2C(=O)CCC2=O)cc1 | 1.1
17 | Cc1cccc(N2C(=O)CCC2=O)c1 | 0.57
18 | O=C1CCC(=O)N1c1ccccc1Cl | 0.56
19 | CCc1cccc(N2C(=O)CCC2=O)c1 | 1.04
20 | COC(=O)c1cccc(N2C(=O)CCC2=O)c1 | 0.36
21 | O=C1CCC(=O)N1c1ccc(Br)cc1 | 1.18
22 | O=C1CCC(=O)N1c1ccccc1Br | 0.65
23 | O=C1CCC(=O)N1c1ccccc1C(F)(F)F | 0.76
24 | O=C1CCC(=O)N1c1cccc(F)c1 | 0.38

Same assay, conditions: pH 7.4

Row | Structure (SMILES) | logD
25 | O=C1CCC(=O)N1c1cccc(I)c1 | 1.39
